The series is described as follows: Human HepG2 cell viability assay in 384 well format. On the set-up: dose 125 nL, time 70.5 hour; cytotoxicity at 70.5 h: concentration not given beside the values. The series is classed as toxicity, cell-based. The note with it: HepG2 cells, read-out: Inhibition.
Regarding `O=C1Nc2ccccc2CN(CC2CC2)C12CCNC2` (stereo not given), the cytotoxicity at 70.5 h is -3.48%.

Regarding `OC(COCc1cccs1)Cn1cc(Br)cn1` (stereo not given), the cytotoxicity at 70.5 h is -1.14%.

For the compound `COc1ccc(CN(C)c2ncc(S(N)(=O)=O)s2)c(OC)c1`, the cytotoxicity at 70.5 h is -4.13%.

As to `Cc1cnc(N2CCC3(CCN(CC4CC4)C3=O)CC2)nc1`, the cytotoxicity at 70.5 h was -9.16%.

In the case of `CC(O)CN1CCC(CNCc2cccc(C(F)(F)F)c2)CC1` (stereo not given), the cytotoxicity at 70.5 h was 2.27%.

As for `O=C(COc1ccccc1)N1C[C@@H]2COC[C@]2(COc2cccnc2)C1`, the cytotoxicity at 70.5 h is 4.76%.

As for `O=C(CC1CC1)N1Cc2nccn2CC(CN2CCCC2)C1` (stereo not given), the cytotoxicity at 70.5 h is 16.9%.

Consider `CC(C)CCN1C[C@H]2C[C@H](C(=O)Nc3cccnc3)[C@@H](C1)O2`, for which the cytotoxicity at 70.5 h is -6.02%.

Take `CC(NCc1ccnc(OC2CCC2)c1)c1cnn(C)c1` (stereo not given): the cytotoxicity at 70.5 h was -15.1%.

As for `COc1cccc(F)c1CN1CCC(c2nccc(C)n2)C1` (stereo not given), the cytotoxicity at 70.5 h is -9.63%.

With `Cc1cc(C)n(C2CN(c3nc(-c4ccncc4)nc4c3CCC4)C2)n1`, the cytotoxicity at 70.5 h was -8.99%.

In the case of `O=C(O)c1ccc2[nH]cc(CN3CCCC3)c2c1`, the cytotoxicity at 70.5 h is 6.43%.

On to `CC(=O)N1C[C@H](NS(=O)(=O)N2CCCC2)[C@@H](c2ccc(C)o2)C1`, for which the cytotoxicity at 70.5 h was -7.2%.

As to `CC(C)c1nc(CSc2nnc(-c3cccs3)n2CC(N)=O)no1`, the cytotoxicity at 70.5 h was -9.43%.

As for `Cc1nc(C)n(C2CCCN(C(=O)c3c(C)nn4cccnc34)C2)n1` (stereo not given), the cytotoxicity at 70.5 h was found to be 20.7%.

As for `CSc1ncnc(NCc2ccco2)c1C#N`, the cytotoxicity at 70.5 h is -12.3%.

Take `Nc1cc(-c2c[nH]nc2C2CCCCN2C(=O)C2CCCC2)ccn1` (stereo not given): the cytotoxicity at 70.5 h was -7.49%.

For the compound `Cc1cccc(N2CCC3(CCCN3Cc3cnn(C)c3C)CC2)n1`, the cytotoxicity at 70.5 h amounted to 2.08%.

With `O=C(C1CC(=O)N(c2ccccc2Br)C1)N1CCN(CC(F)(F)F)CC1` (stereo not given), the cytotoxicity at 70.5 h is -8.32%.

As to `Cc1n[nH]c(C2CN(CC(=O)NCc3ccco3)CCO2)n1` (stereo not given), the cytotoxicity at 70.5 h worked out at 15.9%.

`Cn1ccnc1SCCNC(=O)CC1CCc2ccccc21` (stereo not given): the cytotoxicity at 70.5 h was -10.6%.

Regarding `CCN1CCCc2cc(CN3CCc4c(nc(C)[nH]c4=O)C3)ccc21`, the cytotoxicity at 70.5 h was -3.71%.

Consider `CS(=O)(=O)NCCC(=O)N1CCCC1c1noc(C2CC2)n1` (stereo not given), for which the cytotoxicity at 70.5 h was -11.1%.

Turning to `O=C(NCCc1ccccc1)c1cccc(S(=O)(=O)NC2CCOC2)c1` (stereo not given), the cytotoxicity at 70.5 h is 19.4%.

For `CO[C@@H]1CC[C@@H](NC(=O)c2ccc(OCCN3CCCC3)cc2)[C@H]1O`, the cytotoxicity at 70.5 h is -4.63%.

On to `Cc1ccc(Br)cc1NC(=O)NCC(O)CO` (stereo not given), for which the cytotoxicity at 70.5 h is 3.24%.

Regarding `O=C(CC1CCc2ccccc21)NCCSc1cnn[nH]1` (stereo not given), the cytotoxicity at 70.5 h was -9.43%.

With `O=c1[nH]c(COc2cccc(F)c2)nc2c1CCNC2`, the cytotoxicity at 70.5 h is -17%.

Take `Cc1nc(C)c(CNC[C@@]2(COc3cccnc3)C[C@@H](O)[C@@H](O)C2)s1`: the cytotoxicity at 70.5 h was -4.67%.

In the case of `Cc1cccc(CN2CCC(c3nccn3CC(N)=O)CC2)n1`, the cytotoxicity at 70.5 h worked out at 22.7%.

As for `COCCNc1nc(C)nc2c1CCN(C[C@H]1CC[C@@H](N)CC1)CC2`, the cytotoxicity at 70.5 h was 44.2%.

For the compound `Cc1nc(CN2CCN(CCOc3ccc(C(C)C)c(C)c3)CC2)no1`, the cytotoxicity at 70.5 h came out at 8.91%.

On to `Cc1ncncc1-c1ccnc(N)n1`, for which the cytotoxicity at 70.5 h was -2.72%.

For `COc1nn(C)cc1C(=O)N1CCC(c2nnc(C3CC3)o2)CC1`, the cytotoxicity at 70.5 h is -1.01%.

`CN1CCN(C[C@@H]2CN(C(=O)CC3CCCCC3)C[C@@H]2CO)CC1`: the cytotoxicity at 70.5 h is 0.234%.

As to `CCc1cnc(CN2CCC(N(Cc3noc(CC)n3)C(C)=O)C2)o1` (stereo not given), the cytotoxicity at 70.5 h is -9.22%.

As to `CC(C(=O)O)N1CC2(CCC1=O)CCN(C/C=C/c1ccccc1)CC2` (stereo not given), the cytotoxicity at 70.5 h is -7.03%.

Take `O=C(c1ccc(F)cc1)N1CCC2(CC1)CC(N1CCOCC1)C2`: the cytotoxicity at 70.5 h was -13.1%.

`O=C1COC2(CCN(Cc3ccsc3)CC2)CN1`: the cytotoxicity at 70.5 h was -4.53%.

For `Fc1ccc(-c2cnc(C3CCCN3)cn2)cc1` (stereo not given), the cytotoxicity at 70.5 h is -2.54%.

On to `CSCc1ccc(N2CCN(c3ccc(Cl)cn3)CC2)nc1`, for which the cytotoxicity at 70.5 h stood at 3.63%.

`O=C(CCc1nnc(-c2ccccc2)o1)N1CCN(CC2CC2)CC1`: the cytotoxicity at 70.5 h came to 1.86%.

Take `CCc1nc(N2CCN(c3ncccn3)CC2)c2cnn(C)c2n1`: the cytotoxicity at 70.5 h is -5.59%.

For `CCN(C)C(=O)c1coc(COc2ccccc2)n1`, the cytotoxicity at 70.5 h is -4.16%.

For the compound `COCCC(=O)NCc1ccc(-c2ncncc2C(=O)N(C)C)cc1`, the cytotoxicity at 70.5 h worked out at 6.32%.

For `CCc1nc(C2CCCN(C(=O)c3cc(C(C)C)[nH]n3)C2)no1` (stereo not given), the cytotoxicity at 70.5 h is -3.59%.

As to `CN(CC(=O)N1CCC(Cc2cccc(C(N)=O)c2)C1)C1CCCC1` (stereo not given), the cytotoxicity at 70.5 h stood at 20.8%.

For the compound `CN1CC(C(=O)Nc2ccc(OCC(F)(F)C(F)F)nc2)CC1=O` (stereo not given), the cytotoxicity at 70.5 h is -7.73%.

On to `CCCN1CCCC2(CCN(Cc3cncn3C3CCCCC3)C2)C1=O` (stereo not given), for which the cytotoxicity at 70.5 h is -7.64%.

On to `COc1ccc(CNC(=O)NCc2cc(C)oc2C)cc1`, for which the cytotoxicity at 70.5 h is -10.8%.

Turning to `CC(C)OC(=O)N1CCC(Cc2cccc(C(N)=O)c2)C1` (stereo not given), the cytotoxicity at 70.5 h is 35.3%.

With `O=C(NCc1ccco1)C1CCCN1Cc1nc(-c2ccco2)no1` (stereo not given), the cytotoxicity at 70.5 h was -15.9%.

With `Cn1ccnc1C(=O)NCc1cnc2n1CCN(CC1CC1)CC2`, the cytotoxicity at 70.5 h was -0.996%.

Regarding `Cc1cc(CN(C)C(=O)CN2CCCCCC2=O)no1`, the cytotoxicity at 70.5 h is -10.3%.

As to `CN(CC1CCCO1)C1CCN(CCc2ccccn2)CC1` (stereo not given), the cytotoxicity at 70.5 h was -6.95%.

As for `c1cnc(N2CCCC3(CCN(CC4CC4)C3)C2)nc1` (stereo not given), the cytotoxicity at 70.5 h is -6.19%.

As for `O=C1COC2(CCN(Cc3cccs3)CC2)CN1c1ccccc1`, the cytotoxicity at 70.5 h was -4.47%.

As to `CC(=O)N1CCC2(CC1)COCCN2Cc1ccc(F)cc1`, the cytotoxicity at 70.5 h is -0.157%.

For the compound `CCN(C(=O)C1CC1)C(c1cccnc1)c1ccc2c(c1)CCO2` (stereo not given), the cytotoxicity at 70.5 h is -5.96%.

In the case of `CCCn1ccc(C(=O)N2CCOC(c3nc(-c4cccs4)no3)C2)n1` (stereo not given), the cytotoxicity at 70.5 h worked out at 4.34%.

`OC1CN(c2nc3c(C(F)(F)F)cccc3s2)C1`: the cytotoxicity at 70.5 h was determined as 12.2%.

Consider `Cc1cnn(CC2CCCN2C(=O)c2n[nH]c3ccccc23)c1` (stereo not given), for which the cytotoxicity at 70.5 h is -6.9%.

In the case of `CCOc1ccc(S(=O)(=O)N(CCOC)Cc2ccncc2)cc1F`, the cytotoxicity at 70.5 h came out at 35.3%.

`Cc1nc2cc(O)nn2c(C)c1CCC(=O)N(C)Cc1ccccc1`: the cytotoxicity at 70.5 h came to 2.7%.

As to `Cc1nc2ccccc2c(=O)n1CCC(=O)N1CCCCCC1`, the cytotoxicity at 70.5 h came out at 1.78%.

As to `O=c1[nH]nc(SCC2CCCCO2)n1C1CC1` (stereo not given), the cytotoxicity at 70.5 h is 28.8%.

Regarding `Cc1ccc(N2CCCC(NCc3cccc4c3OCO4)C2)nn1` (stereo not given), the cytotoxicity at 70.5 h is -0.527%.

In the case of `CN(CCC(F)(F)F)c1nc2ccccc2c(=O)[nH]1`, the cytotoxicity at 70.5 h is 0.426%.

`CC(C)CNC(=O)CN1CCCC(c2ccc(C(=O)O)cc2)C1` (stereo not given): the cytotoxicity at 70.5 h is -6.21%.

Take `COCCNC(=O)N1CCCC(COc2ccccc2)C1` (stereo not given): the cytotoxicity at 70.5 h came to 1.11%.

As to `CC(=O)NCC(=O)N1C[C@H](OCc2cccnc2)[C@H]2COC[C@H]21`, the cytotoxicity at 70.5 h was 3.33%.

`Cc1ccc(C(=O)NCCCNS(C)(=O)=O)cc1C`: the cytotoxicity at 70.5 h was -9.61%.

In the case of `COc1ccc(S(=O)(=O)NCCC(O)c2ccoc2)c(C)c1` (stereo not given), the cytotoxicity at 70.5 h is -5.52%.

For `Cc1ccc(Oc2cc(CN)ccn2)cc1C`, the cytotoxicity at 70.5 h was -22.3%.

In the case of `CC(C)(CO)Nc1c(NCc2ccccc2)c(=O)c1=O`, the cytotoxicity at 70.5 h is 0.361%.

With `NC(=O)c1cnn2c1NCC(CNC1(c3ccccc3)CCC1)C2` (stereo not given), the cytotoxicity at 70.5 h was -9.04%.

In the case of `Cc1occc1C(=O)N1CC[C@H]2C[C@@H](c3nnc(C4CC4)o3)O[C@@H]2C1`, the cytotoxicity at 70.5 h is -12%.

Regarding `COc1ccc2c(ccn2CCC(=O)NCCC(=O)O)c1`, the cytotoxicity at 70.5 h was found to be 4.49%.

As to `CC(CCn1cccn1)Nc1ccc(-c2nccn2C)nn1` (stereo not given), the cytotoxicity at 70.5 h is 22.7%.

As to `OC1CCCN(Cc2ccnc(-c3cccnc3)n2)C1` (stereo not given), the cytotoxicity at 70.5 h is -4.64%.

As for `CN1CCCN(C(=O)c2cc3c(s2)CCN3C(=O)C2CC2)CC1`, the cytotoxicity at 70.5 h is -3.39%.

As for `CN(C(=O)NCc1ccncc1)C1CCCN(c2ccccc2)C1=O` (stereo not given), the cytotoxicity at 70.5 h is -4.3%.

Consider `CCn1ccnc1C1CCN(C(=O)C(O)c2ccc(OC)cc2)CC1` (stereo not given), for which the cytotoxicity at 70.5 h was determined as 4.82%.

With `O=C(c1ccnn1COc1ccc(Cl)cc1)N1CCCC1`, the cytotoxicity at 70.5 h is -1.93%.

For the compound `Cc1ccccc1CCCN1C(=O)CC2(CCSC2)C1=O` (stereo not given), the cytotoxicity at 70.5 h was determined as 2.27%.

In the case of `COc1cc(CSc2nnc(N)n2C2CC2)ccc1SC`, the cytotoxicity at 70.5 h was -5.1%.

As to `Cc1cc(C(=O)N2CC[C@](C)(O)[C@H](C)C2)c(C)n1C`, the cytotoxicity at 70.5 h was 18.2%.

As for `COCCC(=O)NCCCOC1CCCc2ccccc21` (stereo not given), the cytotoxicity at 70.5 h worked out at 1.55%.

Consider `COc1cccc(OC)c1CN1CCC2(CC(Nc3ccncn3)C2)C1` (stereo not given), for which the cytotoxicity at 70.5 h is -9.12%.

On to `CN(C)c1ncc(CN2CCOC(C(=O)Nc3ccccc3)C2)cn1` (stereo not given), for which the cytotoxicity at 70.5 h was -6.09%.

As for `COc1ccc(CCN2CCCC(Cn3nc(C)nc3C)C2)cc1` (stereo not given), the cytotoxicity at 70.5 h was -2.31%.

Take `CC(=O)N1CC[C@@]2(C(=O)Nc3ccccc3)CCN(S(C)(=O)=O)CC[C@@H]12`: the cytotoxicity at 70.5 h was -1.82%.

On to `CS(=O)(=O)Nc1cccc(CNC(=O)CCC(=O)c2cccs2)c1`, for which the cytotoxicity at 70.5 h is -3.24%.

Regarding `Cc1nn(C)c2nc(N3CCCC3c3nccs3)sc12` (stereo not given), the cytotoxicity at 70.5 h is -12.1%.

Consider `CSc1ccccc1CN1CCn2nc(CNC(C)=O)cc2C1`, for which the cytotoxicity at 70.5 h is -0.83%.

Regarding `CC(C)CNC(=O)[C@H]1C[C@@H]2CN(C(=O)NCCc3ccccc3)C[C@H]1O2`, the cytotoxicity at 70.5 h is -10.9%.

For `CC(=O)N(Cc1noc(C2CC2)n1)C1CCN(Cc2ccncc2)C1` (stereo not given), the cytotoxicity at 70.5 h was determined as 19.8%.

Turning to `c1ccc(NCc2ccc(Cn3ccnc3)cc2)nc1`, the cytotoxicity at 70.5 h amounted to 41.7%.

For the compound `COCCOc1cccc(CNCc2c(C)nn(C)c2N(C)C)c1`, the cytotoxicity at 70.5 h is -2.1%.

Turning to `c1ccc(-n2cnnc2CCCN2CCOCC2)cc1`, the cytotoxicity at 70.5 h was -2.59%.

For the origin of these results see ChEMBL document CHEMBL3507680, “University of Dundee, Gates Library screen for HepG2 cell viability”.
